Measured values reported in BigSolDB 2.1.

Cc1cnc(NC(=O)C2=C(O)c3ccccc3S(=O)(=O)N2C)s1
solubility (mole fraction)
Conditions | 288.15 K | 293.15 K | 298.15 K | 303.15 K | 308.15 K
in ethanol | 2.2e-05 | 2.55e-05 | 3.2e-05 | 3.95e-05 | 5.3e-05
in ethylene glycol | 2.53e-05 | 2.59e-05 | 3.02e-05 | 2.91e-05 | 3.06e-05
in propylene glycol | 4.49e-05 | 4.52e-05 | 4.74e-05 | 5.6e-05 | 6.61e-05
in water | 2e-07 | 3e-07 | 4e-07 | 9e-07 | 1.1e-06
